Data published in patent US8889699B2, “5-fluorouracil derivative” (Delta-Fly Pharma, Inc., priority 2009, dated 2014).
Like-named read-outs stand apart in the source and are kept apart here.

Test system: human gastric cancer strain (SC-2)
Conditions: 14 days, day 15; for Average weight change (%) / Tumor proliferation inhibition ratio (%): Test Example 3; for BWC (% initial) / IR (%): Test Example 6
Description: The resulting product was stirred with a stirrer at room temperature for about 10 minutes. […] Thereafter, ultrasonic treatment was performed under ice cooling for about 5 minutes, thereby obtaining a BOF-A2 drug liquid to be used at a dose of 14 mg/kg/day, 21 mg/kg/day, or 28 mg/kg/day. • (f) Experiment: The human gastric cancer strain (SC-2) was subcutaneously transplanted into the back of a BALB/cA-nu mouse and preliminarily proliferated therein. The proliferated strain was extracted, cut into about 2 mm square pieces with scissors in physiological saline, and subcutaneously inoculated to the right axillary region of mice of the same strain, 5 to 6 weeks of age, using a transplantation needle. […] Then, drug administration was initiated from the next day. Each of the test liquids shown in (a) to (e) above was administered orally to the mice in each of the test drug groups using a sonde for oral administration at a dose of 0.1 ml per 10 g body weight once a day for 14 continuous days. In the same manner as the above, the cancer-bearing mice in the control group were subjected to oral administration of only 0.5% HPMC liquid for 14 continuous days.
The tumor volume of each mouse in each group before the initiation of the treatment, on day 3, day 5, day 8 (1 week after), day 11, and day 15 (2 weeks after), i.e., after termination of the administration, was calculated using Equation 1 below, and respective relative tumor volume (RTV) relative to the tumor volume at the time of initiation of the treatment was calculated. In relation to the antitumor effect, the average value of the tumor proliferation inhibition ratio (IR; %) was calculated from the average tumor volume of each treatment group on day 15 (after termination of the treatment) relative to that of the control group on day 15, using Equation 2. […] Along therewith, a weight change ratio was calculated from the body weight of the mice at the time of the termination of the drug administration relative to the body weight of the mice at the time of the initiation of the administration, using Equation 3. […] Tumor volume(mm^3)=(major axis)×(minor axis)^2×½ Equation 1: Tumor proliferation inhibition ratio(IR, %)=[1−(average tumor volume of treatment group)/(average tumor volume of control group)]×100 Equation 2: Average weight change ratio(%)=[(average weight on Day 15)−(average weight on Day 1)]/(average weight on Day 1)×100 Equation 3: […]
The resulting product was stirred with a stirrer at room temperature for about 10 minutes. […] The proliferated strain was extracted, cut into about 2 mm square pieces with scissors in physiological saline, and subcutaneously inoculated to the right axillary region of mice of the same strain, 5 to 6 weeks of age, using a transplantation needle. […] Then, drug administration was initiated from the next day. Each of the test liquids shown in (a) to (c) above was administered orally to the mice in each of the test drug groups using a sonde for oral administration at a dose of 0.1 ml per 10 g body weight once a day for 14 continuous days. In the same manner as the above, the cancer-bearing mice in the control group were subjected to oral administration of only 0.5% HPMC liquid for 14 continuous days.
The tumor volume of each mouse in each group before the initiation of the treatment, on day 3, day 5, day 8 (1 week after), day 11, and day 15 (2 weeks after), i.e., after termination of the administration, was calculated using Equation 1 below, and respective relative tumor volume (RTV) relative to the tumor volume at the time of initiation of the treatment was calculated. In relation to the antitumor effect, the average value of the tumor proliferation inhibition ratio (IR; %) was calculated from the average tumor volume of each treatment group on day 15 (after termination of the treatment) relative to that of the control group on day 15, using Equation 2.

Structure (SMILES): CCOCn1cc(F)c(=O)n(C(=O)c2cccc(C(=O)Oc3cc(OC(=O)c4cc(O)nc(O)c4)c(Cl)cn3)c2)c1=O [Compound I-2, 3-{3-[4-(2,6-dihydroxyisonicotinoyloxy)-5-chloro-2-pyridyloxycarbonyl]benzoyl}-1-ethoxymethyl-5-fluorouracil]
- Average weight change (%) (15.0 mg/kg/day oral): −1.13%
- Tumor proliferation inhibition ratio (%) (15.0 mg/kg/day oral): 41.1%
- Average weight change (%) (22.5 mg/kg/day oral): −4.18%
- Tumor proliferation inhibition ratio (%) (22.5 mg/kg/day oral): 56.0%
- Average weight change (%) (30.0 mg/kg/day oral): 1.76%
- Tumor proliferation inhibition ratio (%) (30.0 mg/kg/day oral): 67.9%

Structure (SMILES): CCOCn1cc(F)c(=O)n(C(=O)c2cccc(C(=O)Oc3cc(OC(=O)c4cc(OC(=O)C5CCCC5)nc(OC(=O)C5CCCC5)c4)c(Cl)cn3)c2)c1=O [Compound I-9, 3-{3-[4-(2,6-dicyclopentanecarbonyloxyisonicotinoyloxy)-5-chloro-2-pyridyloxycarbonyl]benzoyl}-1-ethoxymethyl-5-fluorouracil]
- BWC (% initial) (49.5 mg/kg oral): +4.67 % initial
- IR (%) (49.5 mg/kg oral, equivalent to 12.5 mg/kg of S-1): 29.5%

Structure (SMILES): CCOCn1cc(F)c(=O)n(C(=O)c2cccc(C(=O)Oc3cc(OC(=O)c4cc(OC(C)=O)nc(OC(C)=O)c4)c(Cl)cn3)c2)c1=O [Compound I-10, 3-{3-[4-(2,6-diacetyloxyisonicotinoyloxy)-5-chloro-2-pyridyloxycarbonyl]benzoyl}-1-ethoxymethyl-5-fluorouracil]
- Average weight change (%) (25.7 mg/kg/day oral): 1.97%
- Tumor proliferation inhibition ratio (%) (25.7 mg/kg/day oral): 31.9%
- Average weight change (%) (34.2 mg/kg/day oral): −0.05%
- Tumor proliferation inhibition ratio (%) (34.2 mg/kg/day oral): 51.0%
- Average weight change (%) (42.8 mg/kg/day oral): −4.31%
- Tumor proliferation inhibition ratio (%) (42.8 mg/kg/day oral): 57.7%

Structure (SMILES): CCOCn1cc(F)c(=O)n(C(=O)c2cccc(C(=O)Oc3cc(OC(=O)c4cc(OC(=O)CC)nc(OC(=O)CC)c4)c(Cl)cn3)c2)c1=O [Compound I-11, 3-{3-[4-(2,6-dipropionyloxyisonicotinoyloxy)-5-chloro-2-pyridyloxycarbonyl]benzoyl}-1-ethoxymethyl-5-fluorouracil]
- BWC (% initial) (26.7 mg/kg oral): +1.68 % initial
- IR (%) (26.7 mg/kg oral, equivalent to 7.5 mg/kg of S-1): 17.0%
- BWC (% initial) (35.6 mg/kg oral): +1.82 % initial
- IR (%) (35.6 mg/kg oral, equivalent to 10 mg/kg of S-1): 32.0%
- BWC (% initial) (44.5 mg/kg oral): −3.94 % initial
- IR (%) (44.5 mg/kg oral, equivalent to 12.5 mg/kg of S-1): 47.3%
